Source: patent US20260240812A1, “TREATMENT FOR AMYOTROPHIC LATERAL SCLEROSIS (ALS)” (Zydus Lifesciences Limited, priority 2023, published 2026)
Where “and” joins values, the source holds several entries; their conditions need not be identical. Identical values can stand only once.

Tested on: patients with Amyotrophic Lateral Sclerosis (ALS)
Experiment: Phase 2 placebo controlled, randomized, double blind 12-week study, ALSFRS-R total score
Assay type: in vivo, human
Text: Efficacy, Safety, Tolerability, Pharmacokinetics and Pharmacodynamics of Formula (I) in Patients with Amyotrophic Lateral Sclerosis • Protocol Title: A phase 2, proof-of-concept, placebo controlled, randomized, double blind study of compound of formula (I) to evaluate the efficacy, safety, tolerability, pharmacokinetics and pharmacodynamics in patients with Amyotrophic Lateral Sclerosis (ALS). • Study design: A phase 2, proof-of-concept, placebo controlled, randomized, double blind, 12-week study of compound of formula (I) to evaluate the efficacy, safety, pharmacokinetics, and pharmacodynamics in patients with Amyotrophic Lateral Sclerosis (ALS). • Study population: Male or female patients aged between 18-80 years (both inclusive at screening) with diagnosis of Amyotrophic Lateral Sclerosis who meet eligibility criteria • Number of Patients: Approximately 24 patients (06 patients in each arm) are enrolled. • Duration of Patient Participation: 114±5 Days (Including 28 days of screening)
• To measure the efficacy of the treatment using the slope of progression with the revised Amyotrophic Lateral Sclerosis Functional Rating Scale (ALSFRS-R)
• Change from baseline in the ALSFRS-R total score [Time Frame: From baseline to Week 12] […]

CN1CCC[C@]1(C)/C=C/S(=O)(=O)NC(=O)Nc1c2c(cc3c1CCC3)CCC2 [formula (I)]
Change from baseline in the ALSFRS-R total score (baseline to Week 12, one line per patient, arm not given): −8 points and −1 points and 4 points and 0 points and 1 points and −3 points | ALSFRS-R score, result in words (over 12 weeks, ALS patients): stable and improved ALSFRS-R score in some patients
